Measured values as given in publication PMC11882969 (Nature Communications, 2025).
“And” between values parts separate entries of the source, which are not always exact repeats. Equal values may be shown once. Read-outs that look alike come from different tables or passages of the source.

Molecular target: hCB2 (Homo sapiens, UniProt P34972)
Test: bioSensAll ebBRET signaling profiling, hCB2
Format: cell-based
Set-up: host or cells: HEK293SL cells, transient PEI transfection
Details: for G15 hCB2 / Gq hCB2 / Gs hCB2 / G13 hCB2: raw signal; for EC50: read-out: EC50 [95% CI]; for Emax: normalized to CP-55,940

Sequence of hCB2 (P34972 whole entry): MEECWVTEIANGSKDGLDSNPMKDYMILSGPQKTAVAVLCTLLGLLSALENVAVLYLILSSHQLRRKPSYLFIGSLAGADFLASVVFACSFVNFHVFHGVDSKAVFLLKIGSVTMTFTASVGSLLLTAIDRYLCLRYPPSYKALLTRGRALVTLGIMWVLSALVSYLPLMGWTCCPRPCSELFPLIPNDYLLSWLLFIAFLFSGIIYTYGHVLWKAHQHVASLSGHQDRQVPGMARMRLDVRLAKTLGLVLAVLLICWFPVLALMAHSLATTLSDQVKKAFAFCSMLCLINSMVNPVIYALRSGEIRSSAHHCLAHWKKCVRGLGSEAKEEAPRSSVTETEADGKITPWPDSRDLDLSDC

COC(=O)[C@@](C)(NC(=O)c1cc(C)n(-c2cccc(C(F)(F)F)c2)n1)c1cccs1 [‘1350]
G15 hCB2 (Log [Compound] (M) -5.05788): 909 | Gq hCB2 (Log [Compound] (M) -5.05788): 1907 | Gs hCB2 (Log [Compound] (M) -5.05788): 9135 | G13 hCB2 (Log [Compound] (M) -5.47381): 332 | G15 hCB2 (Log [Compound] (M) -5.47381): 938 | Gq hCB2 (Log [Compound] (M) -5.47381): 1876 | Gs hCB2 (Log [Compound] (M) -5.47381): 8949 | G13 hCB2 (Log [Compound] (M) -5.89285): 339 | G15 hCB2 (Log [Compound] (M) -5.89285): 882 | Gq hCB2 (Log [Compound] (M) -5.89285): 1888 | Gs hCB2 (Log [Compound] (M) -5.89285): 8825 | G13 hCB2 (Log [Compound] (M) -6.31878): 340 | G15 hCB2 (Log [Compound] (M) -6.31878): 867 | Gq hCB2 (Log [Compound] (M) -6.31878): 1817 | Gs hCB2 (Log [Compound] (M) -6.31878): 8693 | G13 hCB2 (Log [Compound] (M) -6.72585): 337 | G15 hCB2 (Log [Compound] (M) -6.72585): 945 | Gq hCB2 (Log [Compound] (M) -6.72585): 1883 | Gs hCB2 (Log [Compound] (M) -6.72585): 8781 | G13 hCB2 (Log [Compound] (M) -7.14267): 379 | G15 hCB2 (Log [Compound] (M) -7.14267): 858 | Gq hCB2 (Log [Compound] (M) -7.14267): 1709 | Gs hCB2 (Log [Compound] (M) -7.14267): 8728 | G13 hCB2 (Log [Compound] (M) -7.55284): 353 | G15 hCB2 (Log [Compound] (M) -7.55284): 904 | Gq hCB2 (Log [Compound] (M) -7.55284): 1791 | Gs hCB2 (Log [Compound] (M) -7.55284): 8935 | G13 hCB2 (Log [Compound] (M) -8): 375 | G15 hCB2 (Log [Compound] (M) -8): 912 | Gq hCB2 (Log [Compound] (M) -8): 1812 | Gs hCB2 (Log [Compound] (M) -8): 8658 | G13 hCB2 (Log [Compound] (M) -8.22186): 364 | G15 hCB2 (Log [Compound] (M) -8.22186): 883 | Gq hCB2 (Log [Compound] (M) -8.22186): 1883 | Gs hCB2 (Log [Compound] (M) -8.22186): 9640 | G13 hCB2 (Log [Compound] (M) -8.39794): 287 | G15 hCB2 (Log [Compound] (M) -8.39794): 753 | Gq hCB2 (Log [Compound] (M) -8.39794): 1844 | Gs hCB2 (Log [Compound] (M) -8.39794): 8340 | G13 hCB2 (Log [Compound] (M) -8.68787): 322 | G15 hCB2 (Log [Compound] (M) -8.68787): 851 | Gq hCB2 (Log [Compound] (M) -8.68787): 1882 | Gs hCB2 (Log [Compound] (M) -8.68787): 8911 | G13 hCB2 (Log [Compound] (M) -9.15521): 356 | G15 hCB2 (Log [Compound] (M) -9.15521): 841 | Gq hCB2 (Log [Compound] (M) -9.15521): 1859 | Gs hCB2 (Log [Compound] (M) -9.15521): 8948 | G13 hCB2 (Log [Compound] (M) -9.61989): 303 | G15 hCB2 (Log [Compound] (M) -9.61989): 888 | Gq hCB2 (Log [Compound] (M) -9.61989): 1906 | Gs hCB2 (Log [Compound] (M) -9.61989): 8984 | G13 hCB2 (Log [Compound] (M) -10.0969): 348 | G15 hCB2 (Log [Compound] (M) -10.0969): 956 | Gq hCB2 (Log [Compound] (M) -10.0969): 1853 | Gs hCB2 (Log [Compound] (M) -10.0969): 9066 | G13 hCB2 (Log [Compound] (M) -10.5529): 333 | G15 hCB2 (Log [Compound] (M) -10.5529): 902 | Gq hCB2 (Log [Compound] (M) -10.5529): 1805 | Gs hCB2 (Log [Compound] (M) -10.5529): 9374 | G13 hCB2 (Log [Compound] (M) -11.0177): 340 | G15 hCB2 (Log [Compound] (M) -11.0177): 939 | Gq hCB2 (Log [Compound] (M) -11.0177): 1690 | Gs hCB2 (Log [Compound] (M) -11.0177): 9100 | G13 hCB2 (Log [Compound] (M) -11.4949): 323 | G15 hCB2 (Log [Compound] (M) -11.4949): 868 | Gq hCB2 (Log [Compound] (M) -11.4949): 1776 | Gs hCB2 (Log [Compound] (M) -11.4949): 8459 | G13 hCB2 (Log [Compound] (M) -11.9208): 343 | G15 hCB2 (Log [Compound] (M) -11.9208): 862 | Gq hCB2 (Log [Compound] (M) -11.9208): 1776 | Gs hCB2 (Log [Compound] (M) -11.9208): 9036 | G13 hCB2 (Log [Compound] (M) -12.3979): 327 | G15 hCB2 (Log [Compound] (M) -12.3979): 871 | Gq hCB2 (Log [Compound] (M) -12.3979): 1850 | Gs hCB2 (Log [Compound] (M) -12.3979): 8912 | G13 hCB2 (Log [Compound] (M) -12.8861): 293 | G15 hCB2 (Log [Compound] (M) -12.8861): 841 | Gq hCB2 (Log [Compound] (M) -12.8861): 1768 | Gs hCB2 (Log [Compound] (M) -12.8861): 8754 | G13 hCB2 (Log [Compound] (M) -13): 352 and 368 | G15 hCB2 (Log [Compound] (M) -13): 772 and 852 | Gq hCB2 (Log [Compound] (M) -13): 1940 and 1790 | Gs hCB2 (Log [Compound] (M) -13): 8891 and 8980 | EC50 (hCB2 Barr2 + GRK2): 4.2 nM | EC50 (hCB2 Gi2): 1.6 nM | EC50 (hCB2 GoB): 2.6 nM | EC50 (hCB2 Gz): 2.6 nM | Emax (read-out: Emax [95% CI], hCB2 Barr2 + GRK2): 30% | Emax (read-out: Emax [95% CI], hCB2 Gi1): 74% | Emax (read-out: Emax [95% CI], hCB2 Gi2): 61% | Emax (read-out: Emax [95% CI], hCB2 GoB): 59% | Emax (read-out: Emax [95% CI], hCB2 Gz): 52%
